This test relates to AOM-induced colon tumors. Description: AOM-induced tumorigenesis with UA-containing diets. It is filed as in vivo, FVB mice. An excerpt: Oral UA confers anti-tumor effects in murine colorectal cancer in a T-cell dependent manner. (FIG. 1A) Schematic representation of AOM model and different UA containing diets. (FIG. 1B) Representative images of swiss-roll sections from AOM-induced colon tumors. Scale bars are 2 mm (upper row) and 300 µm (lower row), respectively. (FIG. 1C) Tumor incidence of AOM-induced tumors receiving different UA-containing diets; n=4/5/5. Data are mean ±SD, depicting one of two independent experiments. *p < 0.05 by two-sided t-test. (FIG. 1D) Average lesion size of AOM-induced tumors receiving different UA-containing diets; n=4/5/5. Data are mean ±SD, depicting one of two independent experiments. *p < 0.05 by two-sided t-test. (FIG. 1E) Relative number of CD45^+CD3^+ T cells in colons of AOM-treated mice at week 24 (n>7, pooled from two independent experiments). Data are mean ± SD, **p < 0.01 by two-sided t-test. (FIG. 1F) Organoid treatment scheme. APTK-organoids were incubated in the presence of UA or DMSO for the indicated time points, prior to flow cytometric analysis. (FIG. 1G) Quantification of lysosome formation as assessed by lysotracker MFI via flow cytometry after 24 h incubation at the presence of various UA concentrations (n=5/4/4). Depicts one out of two indepdent experiments. Data are mean ± SD, *p < 0.05; **p < 0.01 as established via two-sided t-test. (FIG. 1H) Mitotracker signal of APTK organoids incubated for 24 h at the presence of UA in vitro (n=4/4/4) and antigen presentation via MHC-I molecules (I) after 48 h of treatment (n=4/4/4). Results from one out of two independent experiments are shown. Data are mean ± SD, statistical analysis was performed via two-sided t-test, *p < 0.05; **p < 0.01, ****p < 0.0001. (FIG. 1I) Upregulation of MHC-I by UA. (FIG. 1J) Experimental setup of oral UA administration in mice with established APTK-s.c. tumors. Treatment diet was initiated eleven days after tumor injection and maintained until the end of the experiment. (FIG. 1K) Growth curve of mice subcutaneously transplanted with APTK tumors, receiving either UA-containing or control food (n=7 per group). Data are mean ± SD, ***p <0.001 by two-sided t-test. One out of two independent experiments are shown. (FIG. 1L) End point tumor weight, (FIG. 1M) CD8+ T cell infiltration in APTK-s.c. tumors assessed by flow cytometry, normalising total number of CD8^+ T cells to tumor weight (n=7 per group). Data are mean ± SD, statistical analysis was performed via Mann-Whitney test, *p < 0.05 and ***p <0.001. (FIG. 1N) Size of subcutaneous APTK tumors in Rag1^-/- mice receiving UA-containing or control food (n=7 per group). Treatment was initiated as depicted in FIG. 1J. Data are mean +-SD, depicting one out of two independent experiments. […]

Setting [1] is: high-dose UA diet (2.28 g/kg), 18 weeks.

As for `O=c1oc2cc(O)ccc2c2ccc(O)cc12` [Urolithin A], under setting [1], the tumor incidence result was “significant decrease” and the tumor size result is recorded as “significant decrease”. The “infiltration of CD3+ T cells” value (high-dose UA diet, colons at week 24) is “increased infiltration of CD3^+T cells”. Also, the tumor load entry (low-dose UA diet (0.57 g/kg), 18 weeks) was “did not have an effect on tumor load”.

(Values after patent publication US20230277669A1, “USES OF UROLITHINS” (Amazentis SA, priority 2022, published 2023).)
